Results: the supplement of paper PMC4862054
One block for each compound: values may come before it.

Experiments:
[1] = system: BT-474; conditions: 72 h
In short: (§1)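 EC50 was fitted from dose-response curves and censored at the highest concentration tested. To build those curves, breast cancer cell lines (20 µl suspension) were seeded into 384-well plates containing compound at 5 concentrations in 10-fold steps over a compound-specific 10,000-fold range and incubated for 72 h. Readouts were CellTox Green fluorescence (485/520 nm) for cell death and then CellTiter-Glo luminescence for viability, with each plate normalised to 0.1 % DMSO and a positive kill control.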

[2] = system: DU-4475; conditions: 72 h
In short: as §1

[3] = system: CAL-51; conditions: 72 h
In short: as §1

[4] = system: BT-549; conditions: 72 h
In short: as §1

[5] = system: MCF-10A; conditions: 72 h
In short: as §1

[6] = system: Hs578T; conditions: 72 h
In short: as §1

[7] = system: SK-BR-3; conditions: 72 h
In short: as §1

[8] = system: CAL-148; conditions: 72 h
In short: as §1

[9] = system: MDA-MB-436; conditions: 72 h
In short: as §1

[10] = system: CAL-120; conditions: 72 h
In short: as §1

[11] = system: HDQ-P1; conditions: 72 h
In short: as §1

[12] = system: MDA-MB-231; conditions: 72 h
In short: as §1

[13] = system: MDA-MB-468; conditions: 72 h
Description: (§2)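 Drug sensitivity and resistance testing (DSRT) of breast cancer cell lines in 384-well plates, 5 concentrations in 10-fold dilutions over a compound-specific 10,000-fold range. After 72 h, cytotoxicity was read by CellTox Green fluorescence and viability by CellTiter-Glo luminescence (multiplexed), normalised to DMSO and benzethonium chloride controls. EC50 is the inflection point of the fitted dose-response curve (bottom asymptote free, so it can be relative for partial curves) and is censored at the highest tested concentration. Rows with DSS 0 (no meaningful response) were excluded.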

[14] = system: HCC1143; conditions: 72 h
In short: (§3)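 The reported EC50 was fitted from percent-inhibition dose-response curves and censored at the highest concentration. Breast cancer cell lines (20 µl suspension) were added to 384-well plates containing compound in 5 µl medium and incubated 72 h, and viability was read with 2.5 µl CellTiter-Blue over 2 h at 37 °C at 560/590 nm. Each plate was normalised to vehicle and a positive kill control and checked by Z'-factor, and rows with zero drug sensitivity score were dropped.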

[15] = system: BT-474; conditions: 72 h; remark: listed apart in the source
In short: as §3

[16] = system: MDA-MB-468; conditions: 72 h; remark: listed apart in the source
In short: as §3

[17] = system: BT-549; conditions: 72 h; remark: listed apart in the source
In short: as §3

[18] = system: Hs578T; conditions: 72 h; remark: listed apart in the source
In short: as §3

[19] = system: HCC1937; conditions: 72 h
In short: as §3

[20] = system: SK-BR-3; conditions: 72 h; remark: listed apart in the source
In short: as §3

[21] = system: MDA-MB-436; conditions: 72 h; remark: listed apart in the source
In short: as §3

[22] = system: MFM-223; conditions: 72 h
In short: as §3

[23] = system: CAL-120; conditions: 72 h; remark: listed apart in the source
In short: as §3

[24] = system: MDA-MB-231; conditions: 72 h; remark: listed apart in the source
In short: as §3

[25] = system: MDA-MB-453; assay: normalised viability (% of control), CellTiter-Blue; higher = more viable cells (about 100 = DMSO control); conditions: incubation time: 72 h
Description: (§4)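 DSRT, CellTiter-Blue viability, 72 h incubation. Signal is normalised to DMSO and benzethonium chloride controls. Value is the normalised response at dose 9.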

[26] = system: DU-4475; assay: as above; conditions: incubation time: 72 h
Description: as §4

[27] = system: CAL-51; assay: as above; conditions: incubation time: 72 h
Description: as §4

[28] = system: CAL-85-1; assay: as above; conditions: incubation time: 72 h
Description: as §4

[29] = system: CAL-148; assay: as above; conditions: incubation time: 72 h
Description: as §4

[30] = system: HDQ-P1; assay: as above; conditions: incubation time: 72 h
Description: as §4

[31] = system: MDA-MB-453; conditions: 72 h
In short: as §1

[32] = system: HCC1143; conditions: 72 h; remark: listed apart in the source
In short: as §1

[33] = system: HCC1937; conditions: 72 h; remark: listed apart in the source
In short: as §1

[34] = system: CAL-85-1; conditions: 72 h
In short: as §1

[35] = system: HCC1599; conditions: 72 h
In short: as §1

[36] = system: MFM-223; conditions: 72 h; remark: listed apart in the source
In short: as §1

[37] = system: CAL-148; conditions: 72 h; remark: listed apart in the source
Description: as §2

[38] = system: MFM-223; conditions: 72 h; remark: listed apart in the source
Description: as §2

[39] = system: HCC1599; conditions: 72 h; remark: listed apart in the source
In short: as §3

SMILES: N#Cc1ccc(COC[C@H]2O[C@@H](n3c(NCc4ccc(Cl)c(Cl)c4)nc4c(N)ncnc43)[C@H](O)[C@@H]2O)cc1 (10000 nM)
normalised viability [25]: 50.3%
normalised viability [26]: 76.9%
normalised viability [27]: 89.9%
normalised viability [28]: 92%
normalised viability [29]: 89%
normalised viability [30]: 88.4%

SMILES: COc1cc(OC2CCN(C)CC2)ccc1Nc1ncc2c(n1)n(C1CCCC1)c(=O)n2C [AZ 3146] (10000 nM)
normalised viability [25]: 37.4%
normalised viability [26]: 54.6%
normalised viability [27]: 22%
normalised viability [28]: 72.4%
normalised viability [29]: 48.4%
normalised viability [30]: 80.1%

SMILES: CN(C)c1nc(N(C)C)nc(N(C)C)n1 [Altretamine] (10000 nM)
normalised viability [25]: 18.7%
normalised viability [26]: 94.7%
normalised viability [27]: 72.6%
normalised viability [28]: 46.5%
normalised viability [29]: 63.4%
normalised viability [30]: 111%

Now from value to compound, other results behind:

EC50, CellTiter-Glo [1]: 206 nM
EC50, CellTiter-Glo [4]: 4290 nM
EC50, CellTiter-Glo [7]: 1880 nM
EC50, CellTiter-Glo [9]: 3670 nM
EC50, CellTiter-Glo [12]: 1500 nM
SMILES: CCn1c(-c2nonc2N)nc2cnc(Oc3cccc(NC(=O)c4ccc(OCCN5CCOCC5)cc4)c3)cc21
EC50, CellTiter-Glo [2]: > 10000 nM
EC50, CellTiter-Glo [3]: 4640 nM
EC50, CellTiter-Glo [5]: 37.8 nM
EC50, CellTiter-Glo [6]: 2050 nM
EC50, CellTiter-Glo [8]: 1240 nM
EC50, CellTiter-Glo [10]: 512 nM
EC50, CellTiter-Glo [11]: 2170 nM
EC50, CellTox Green [13]: > 10000 nM

EC50, CellTiter-Blue viability [14]: 121 nM
EC50, CellTiter-Blue viability [15]: 2920 nM
EC50, CellTiter-Blue viability [16]: 1150 nM
EC50, CellTiter-Blue viability [17]: 2370 nM
EC50, CellTiter-Blue viability [19]: 3820 nM
EC50, CellTiter-Blue viability [20]: 3180 nM
EC50, CellTiter-Blue viability [21]: 1080 nM
EC50, CellTiter-Blue viability [24]: 1750 nM
SMILES: Cc1cc(Nc2cc(CN3CCOCC3)c3nc(C)c(Cc4ccc(Cl)cc4F)n3n2)n[nH]1
EC50, CellTiter-Blue viability [18]: 2080 nM
EC50, CellTiter-Blue viability [22]: 83.5 nM
EC50, CellTiter-Blue viability [23]: 877 nM

EC50, CellTiter-Glo [31]: 195 nM
EC50, CellTiter-Glo [32]: 366 nM
EC50, CellTiter-Glo [1]: 286 nM
EC50, CellTiter-Glo [4]: 228 nM
EC50, CellTiter-Glo [33]: 285 nM
EC50, CellTiter-Glo [7]: 116 nM
EC50, CellTiter-Glo [35]: 3620 nM
EC50, CellTiter-Glo [9]: 121 nM
EC50, CellTiter-Glo [12]: 316 nM
SMILES: CNC(=O)c1cccc(-c2ccc3c(N4CCOC[C@@H]4C)nc(N4CCOC[C@@H]4C)nc3n2)c1 [AZD2014]
EC50, CellTiter-Glo [2]: 1400 nM
EC50, CellTiter-Glo [3]: 131 nM
EC50, CellTiter-Glo [5]: 493 nM
EC50, CellTiter-Glo [6]: 459 nM
EC50, CellTiter-Glo [34]: 290 nM
EC50, CellTiter-Glo [8]: 395 nM
EC50, CellTiter-Glo [36]: 123 nM
EC50, CellTiter-Glo [10]: 224 nM
EC50, CellTiter-Glo [11]: 120 nM
EC50, CellTox Green [37]: 130 nM
EC50, CellTox Green [38]: > 10000 nM

EC50, CellTiter-Blue viability [39]: 2950 nM
SMILES: CN(C)c1nc(N(C)C)nc(N(C)C)n1 [Altretamine]
